Data as given in patent US4220755A, “Fortimicin B derivatives and process for production thereof” (Abbott Laboratories, priority 1976, dated 1980).
In brackets after ≈: the same amount, converted by molar mass.

Tests used:
[1] = system: Staphylococcus aureus KY4279 ATCC6538P; experiment: MIC, agar dilution method, pH 8.0; type: cell-based; conditions: pH 8.0, Staphylococcus aureus KY4279, read-out: Minimum inhibition concentration (MIC), SA
Method: (§1) Measurement was carried out according to the agar dilution method, using a medium of pH 8.0, or the Japanese Antibiotic Medicament Standard, using a medium of pH 7.2 Units are in mcg/ml.
S.A.: Staphylococcus aureus KY4279 ATCC6538P

Bacillus subtilis KY4273 = experiment: MIC, agar dilution method, pH 8.0; type: cell-based; conditions: pH 8.0; Bacillus subtilis KY4273; read-out: Minimum inhibition concentration (MIC), BS
Method: as §1
B.S.: Bacillus subtilis KY4273

[2] = system: Eschericia coli KY4271 ATCC26; experiment: MIC, agar dilution method, pH 8.0; type: cell-based; conditions: Escherichia coli, ATCC26; pH 8.0; E. coli KY4271; read-out: Minimum inhibition concentration (MIC), EC
Method: as §1
E.C.: Eschericia coli KY4271 ATCC26

[3] = system: Proteus vulgaris KY4277 ATCC6897; experiment: MIC, agar dilution method, pH 8.0; type: cell-based; conditions: ATCC6897; pH 8.0; Proteus vulgaris KY4277; read-out: Minimum inhibition concentration (MIC), PV
Method: as §1

[4] = system: Shigella sonnei KY4281 ATCC9290; experiment: MIC, agar dilution method, pH 8.0; type: cell-based; conditions: ATCC9290; pH 8.0; Shigella sonnei KY4281; read-out: Minimum inhibition concentration (MIC), SS
Method: as §1

[5] = system: Salmonella typhosa KY4278 ATCC9992; experiment: MIC, agar dilution method, pH 8.0; type: cell-based; conditions: Salmonella enterica, pH 8, read-out: Minimum inhibition concentration (MIC), ST
Method: as §1
S.T.: Salmonella typhosa KY4278 ATCC9992

[6] = system: Klebsiella pneumoniae KY4275 ATCC10031; experiment: MIC, agar dilution method, pH 8.0; type: cell-based; conditions: ATCC10031; pH 8.0; Klebsiella pneumoniae KY4275; read-out: Minimum inhibition concentration (MIC), KP
Method: as §1
K.P.: Klebsiella pneumoniae KY4275 ATCC10031.

Escherichia coli NIHTC-2 = experiment: MIC, agar dilution method, pH 7.2; type: cell-based; conditions: Escherichia coli, NIHTC2, pH 7.2, read-out: Minimum inhibition concentration (MIC)
Method: as §1

[7] = system: Eschericihia coli GN2411-5; experiment: MIC, agar dilution method, pH 7.2; type: cell-based; conditions: Escherichia coli, GN2411, pH 7.2, read-out: Minimum inhibition concentration (MIC)
Method: as §1

[8] = system: Klebsiella pneumoniae KY4274; experiment: MIC, agar dilution method, pH 7.2; type: cell-based; conditions: Klebsiella pneumoniae, KY4274, pH 7.2, read-out: Minimum inhibition concentration (MIC)
Method: as §1

Proteus vulgaris JJ = experiment: MIC, agar dilution method, pH 7.2; type: cell-based; conditions: Proteus vulgaris, pH 7.2, read-out: Minimum inhibition concentration (MIC)
Method: as §1

[9] = system: Pseudomonas aeruginosa BMH# 1; experiment: MIC, agar dilution method, pH 7.2; type: cell-based; conditions: Pseudomonas aeruginosa, pH 7.2, read-out: Minimum inhibition concentration (MIC)
Method: as §1

[10] = system: Pseudomonas aeruginosa UCLA 4184; experiment: MIC, agar dilution method, pH 7.2; type: cell-based; conditions: Pseudomonas aeruginosa, UCLA4184, pH 7.2, read-out: Minimum inhibition concentration (MIC)
Method: as §1

[11] = system: Salmonella enteritidis G-14; experiment: MIC, agar dilution method, pH 7.2; type: cell-based; conditions: Salmonella enterica, ENTERITIDIS, pH 7.2, read-out: Minimum inhibition concentration (MIC)
Method: as §1

Shigella sonnei ATCC9290 = experiment: MIC, agar dilution method, pH 7.2; type: cell-based; conditions: read-out: Minimum inhibition concentration (MIC)
Method: as §1

[12] = system: Staphylococcus aureus 209-P; experiment: MIC, agar dilution method, pH 7.2; type: cell-based; conditions: Staphylococcus aureus, 209P, pH 7.2, read-out: Minimum inhibition concentration (MIC)
Method: as §1

[13] = system: Staphylococcus aureus Smith (A); experiment: MIC, agar dilution method, pH 7.2; type: cell-based; conditions: Staphylococcus aureus, pH 7.2, read-out: Minimum inhibition concentration (MIC)
Method: as §1

[14] = system: Staphylococcus a ureus 226; experiment: MIC, agar dilution method, pH 7.2; type: cell-based, Staphylococcus aureus; conditions: pH 7.2, read-out: Minimum inhibition concentration (MIC)
Method: as §1

Eschericihia coli 3100 = experiment: MIC, agar dilution method, pH 7.2; type: cell-based, Escherichia coli; conditions: Escherichia coli, 3100, pH 7.2, read-out: Minimum inhibition concentration (MIC)
Method: as §1

[15] = system: Escherichia coli 57R/W677; experiment: MIC, agar dilution method, pH 7.2; type: cell-based; conditions: 57R/W677, pH 7.2, read-out: Minimum inhibition concentration (MIC)
Method: as §1
(§2) **1: gentamicin, producing adenylsynthetase.

Escherichia coli 76-2 = experiment: MIC, agar dilution method, pH 7.2; type: cell-based; conditions: Escherichia coli, 762; pH 7.2; E. coli 76-2; 1**: gentamicin, producing adenylsynthetase; read-out: Minimum inhibition concentration (MIC)
Method: as §1, §2

[16] = system: Escherichia coli R12 Z-338; experiment: MIC, agar dilution method, pH 7.2; type: cell-based; conditions: R12Z338, pH 7.2, E. coli R12 Z-338, 1**: gentamicin, producing adenylsynthetase, read-out: Minimum inhibition concentration (MIC)
Method: as §1, §2

[17] = system: Klebsiella pneumoniae 3020 Y-60; experiment: MIC, agar dilution method, pH 7.2; type: cell-based; conditions: Klebsiella pneumoniae, 3020Y60, pH 7.2, read-out: Minimum inhibition concentration (MIC)
Method: as §1, §2

[18] = system: Escherichia coli R18 KY8321; experiment: MIC, agar dilution method, pH 7.2; type: cell-based; conditions: R18KY8321, E. coli R18 KY8321, 2**: gentamicin, producing adenylsynthetase and neomycin phosphotransferase type II, read-out: Minimum inhibition concentration (MIC)
Method: as §1
2: gentamicin, producing adenylsynthetase and neomycin phosphotransferase

[19] = system: Escherichia coli R17 Z343; experiment: MIC, agar dilution method, pH 7.2; type: cell-based; conditions: R17Z343, pH 7.2, E. coli R17 Z343, 3**: kanamycin, producing acetyltransferase, read-out: Minimum inhibition concentration (MIC)
Method: as §1
(§3) 3: kanamycin, producing acetyltransferase.

[20] = system: Pseudomonas aeruginosa R9 KY8516; experiment: MIC, agar dilution method, pH 7.2; type: cell-based; conditions: R9KY8516, pH 7.2, read-out: Minimum inhibition concentration (MIC)
Method: as §1, §3

Serratia marcescens 1065 = experiment: MIC, agar dilution method, pH 7.2; type: cell-based; conditions: Serratia marcescens, 1065, pH 7.2, read-out: Minimum inhibition concentration (MIC)
Method: as §1, §3

[21] = system: Escherichia coli R19 KY8348; experiment: MIC, agar dilution method, pH 7.2; type: cell-based; conditions: R19KY8348, pH 7.2, read-out: Minimum inhibition concentration (MIC)
Method: as §1
(§4) 4: gentamicin, producing acetyltransferase type I.

[22] = system: Pseudomonas aeruginosa R4 KY8511; experiment: MIC, agar dilution method, pH 7.2; type: cell-based; conditions: R4KY8511, pH 7.2, read-out: Minimum inhibition concentration (MIC)
Method: as §1, §4

[23] = system: Escherichia coli R20 KY8349; experiment: MIC, agar dilution method, pH 7.2; type: cell-based; conditions: R20KY8349, pH 7.2, E. coli R20 KY8349, 5**: neomycin, producing phosphotransferase type I, read-out: Minimum inhibition concentration (MIC)
Method: as §1
5: neomycin, producing phosphotransferase type I.

[24] = system: Pseudomonas aeruginosa R5 KY8512; experiment: MIC, agar dilution method, pH 7.2; type: cell-based; conditions: R5KY8512, pH 7.2, read-out: Minimum inhibition concentration (MIC)
Method: as §1
6: neomycin, producing phosphotransferase type I and type II.

Providencia sp 164 = experiment: MIC, agar dilution method, pH 7.2; type: cell-based; conditions: pH 7.2; Providencia sp 164; 7**: gentamicin, producing acetyltransferase type II; read-out: Minimum inhibition concentration (MIC)
Method: as §1
7: gentamicin, producing acetyltransferase type II.

CO[C@H]1[C@@H](O)[C@H](N)[C@@H](O[C@H]2O[C@H]([C@H](C)N)CC[C@H]2N)[C@H](O)[C@@H]1N(C)C[C@@H](O)CN [Compound 31, 4-N-[(S)-3-amino-2-hydroxypropyl]fortimicin B]
MIC [1]: 0.16 µg/mL (≈ 0.38 µM) | MIC (Bacillus subtilis KY4273): 0.32 µg/mL (≈ 0.759 µM) | MIC [2]: 2.5 µg/mL (≈ 5.93 µM) | MIC [3]: 1.25 µg/mL (≈ 2.97 µM) | MIC [4]: 2.5 µg/mL (≈ 5.93 µM) | MIC [5]: 0.63 µg/mL (≈ 1.49 µM) | MIC [6]: 2.5 µg/mL (≈ 5.93 µM)

CNC[C@H](O)CN(C)[C@H]1[C@@H](O)[C@H](O[C@H]2O[C@H]([C@H](C)N)CC[C@H]2N)[C@@H](N)[C@H](O)[C@@H]1OC [Compound 32, 4-N-[(S)-3-methylamino-2-hydroxypropyl]fortimicin B]
MIC [1]: 0.16 µg/mL (≈ 0.367 µM) | MIC (Bacillus subtilis KY4273): 0.63 µg/mL (≈ 1.45 µM) | MIC [2]: 2.5 µg/mL (≈ 5.74 µM) | MIC [3]: 2.5 µg/mL (≈ 5.74 µM) | MIC [4]: 2.5 µg/mL (≈ 5.74 µM) | MIC [5]: 0.63 µg/mL (≈ 1.45 µM) | MIC [6]: 5 µg/mL (≈ 11.5 µM)

NC[C@H]1O[C@H](O[C@H]2[C@H](O)[C@@H](O[C@H]3O[C@H](CO)[C@@H](O)[C@H](N)[C@H]3O)[C@H](N)C[C@@H]2N)[C@H](O)[C@@H](O)[C@@H]1O [KA, kanamycin A, reference compound]
MIC (Escherichia coli NIHTC-2): 1.56 µg/mL (≈ 3.22 µM) | MIC [7]: 3.12 µg/mL (≈ 6.44 µM) | MIC [8]: > 100 µg/mL | MIC (Proteus vulgaris JJ): 1.56 µg/mL (≈ 3.22 µM) | MIC [9]: 25 µg/mL (≈ 51.6 µM) | MIC [10]: > 100 µg/mL | MIC [11]: 3.12 µg/mL (≈ 6.44 µM) | MIC (Shigella sonnei ATCC9290): 3.12 µg/mL (≈ 6.44 µM) | MIC [12]: 0.4 µg/mL (≈ 0.826 µM) | MIC [13]: 0.4 µg/mL (≈ 0.826 µM) | MIC [14]: 0.78 µg/mL (≈ 1.61 µM) | MIC (Eschericihia coli 3100): 3.12 µg/mL (≈ 6.44 µM) | MIC [15]: > 100 µg/mL | MIC (Escherichia coli 76-2): > 100 µg/mL | MIC [16]: 100 µg/mL (≈ 206 µM) | MIC [17]: > 100 µg/mL | MIC [18]: > 100 µg/mL | MIC [19]: 12.5 µg/mL (≈ 25.8 µM) | MIC [20]: > 100 µg/mL | MIC (Serratia marcescens 1065): 100 µg/mL (≈ 206 µM) | MIC [21]: 1.56 µg/mL (≈ 3.22 µM) | MIC [22]: 100 µg/mL (≈ 206 µM) | MIC [23]: > 100 µg/mL | MIC [24]: > 100 µg/mL | MIC (Providencia sp 164): > 100 µg/mL
